# System: HBeAg (surrogate marker for cccDNA) in HepDES19 cells
# Assay: Engineered HepDES19 primary screen assay (HBeAg ELISA)
# Type: cell-based, HBV
# Details: Hepatitis B virus, 120 h, HBeAg in culture supernatant, 5 days incubation, read-out: IC50 (HepDES19 primary screen assay, inhibition of extracellular HBeAg level)
# Description: The assay was employed to screen for cccDNA inhibitors. HepDES19 is a cccDNA-producing cell line. In this cell line, HBeAg in the cell culture supernatant as surrogate marker, as HBeAg production depends on cccDNA level and activity. HepDES19 is an engineered cell line which contains a 1.1 unit length HBV genome, and pgRNA transcription from the transgene is controlled by Tetracycline (Tet). In the absence of Tet, pgRNA transcription will be induced, but HBV e antigen (HBeAg) could not be produced from this pgRNA due to very short leader sequence before the HBeAg start codon and the start codon is disrupted. Only after cccDNA is formed, the missing leader sequence and start codon mutation would be restored from the 3′-terminal redundancy of pgRNA, and then HBeAg could be synthesized. Therefore, HBeAg could be used as a surrogate marker for cccDNA (Zhou, T. et al., Antiviral Res. (2006), 72(2), 116-124; Guo, H. et al., J. Virol. (2007), 81(22), 12472-12484).
# HepDES19 cells were seeded at 2×10^6 cells per T150 flask and cultured with the culture medium (Dulbecco's Modified Eagle Medium: Nutrient Mixture F-12 [DMEM-F12, Gibco Cat. 11320-82], 10% Fetal Bovine Serum [FBS, Clontech Cat. 631101], 0.1 mM Non-Essential Amino Acids Solution [NEAA, Gibco Cat. 11140-050], 50 μg/mL Penicillin-Streptomycin [PS, Invitrogen Cat. 15140-163], 500 μg/mL Geneticin [G418, Invitrogen Cat. 10131-027]) containing 3 μg/mL Tet (Sigma, Cat. 87128) for 5 days. Cells were then seeded at 4×10^6 cells per T150 in the same culture medium as described above in the absence of Tet for 8 days. Cells were then harvested and frozen at density of 2×10^6 cells per mL. For compound testing, the frozen cells were thawed and seeded into 96-well plates at a density of 6×10^4 cells per well. At 24 hours after seeding, half log serial dilutions of compounds made with Dimethyl sulfoxide (DMSO, Sigma, Cat. D2650) were further diluted with the same culture medium as described above before they were added to the cells to reach desired final compound concentrations and 1% DMSO concentration. Plates were then incubated at 37° C. for another 5 days before measurement of HBeAg level and cell viability. Intracellular HBeAg level were measured with enzyme-linked immunosorbent assay (ELISA) kit (Shanghai Kehua Diagnostic Medical Products Co., Ltd). Cell viability was assessed using Cell Counting Kit-8 (DonJindo, Cat. CK04-20). IC50 values were derived from the dose-response curve using 4 parameter logistic curve fit method.
# The compounds of the present invention were tested for their capacity to inhibit extracellular HBeAg level as described herein.
row,Structure (SMILES),IC50 [µM]
1,"Cc1ccc(-c2cc(=O)c3cccc(Cl)c3o2)c(OCCN2CCN(C)C2=O)c1 [Example 092, 1-[2-[2-(8-chloro-4-oxo-chromen-2-yl)-5-methyl-phenoxy]ethyl]-3-methyl-imidazolidin-2-one]",0.22
2,"CS(=N)(=O)C1CCN(CCOc2cc(C(F)(F)F)ccc2-c2cc(=O)c3cccc(Cl)c3o2)CC1 (stereo not drawn) [Example 094, 8-chloro-2-[2-[2-[4-(methylsulfonimidoyl)-1-piperidyl]ethoxy]-4-(trifluoromethyl)phenyl]chromen-4-one]",9.79
3,"CCOC(=O)C(=O)NCCCOc1cc(C)ccc1-c1cc(=O)c2cccc(Cl)c2o1 [Example 095, ethyl 2-[3-[2-(8-chloro-4-oxo-chromen-2-yl)-5-methyl-phenoxy]propylamino]-2-oxo-acetate]",9.3
4,O=c1cc(-c2ccc(C(F)(F)F)cc2OCCNS(=O)(=O)C2CC2)oc2c(Cl)cccc12 [Example 096],0.13
5,O=c1cc(-c2ccc(C(F)(F)F)cc2OCCCNS(=O)(=O)c2ccccc2)oc2c(Cl)cccc12 [Example 097],1.16
6,CCC(=O)NCCCOc1cc(C(F)(F)F)ccc1-c1cc(=O)c2cccc(Cl)c2o1 [Example 099],6.47
7,"CCOC(=O)C(=O)NCCCOc1cc(C(F)(F)F)ccc1-c1cc(=O)c2cccc(Cl)c2o1 [Example 100, ethyl 2-[3-[2-(8-chloro-4-oxo-chromen-2-yl)-5-(trifluoromethyl)phenoxy]propylamino]-2-oxo-acetate]",3.84
8,CCOC(=O)C(=O)NCCOc1cc(OC)c(Br)cc1-c1cc(=O)c2cccc(Cl)c2o1 [Example 102],2.91
9,CCOC(=O)C(=O)NCCOc1cc(C)ccc1-c1cc(=O)c2cc(OC)cc(Cl)c2o1 [Example 103],3.66
10,CCOC(=O)C(=O)NCCOc1cc(OC)ccc1-c1cc(=O)c2cccc(Cl)c2o1 [Example 104],9.65
11,COC(=O)NCCOc1cc(Br)ccc1-c1cc(=O)c2cccc(Cl)c2o1 [Example 105],1.9
12,CCOC(=O)NCCOc1cc(Br)ccc1-c1cc(=O)c2cccc(Cl)c2o1 [Example 106],1.1
13,CNS(=O)(=O)NCCCOc1cc(C)ccc1-c1cc(=O)c2cccc(Cl)c2o1 [Example 107],2.71
14,O=c1cc(-c2ccc(Br)cc2OC2CCN(S(=O)(=O)C3CC3)CC2)oc2c(Cl)cccc12 [Example 108],1.14
15,"CCOC(=O)C(=O)NCCOc1cc(C)ccc1-c1cc(=O)c2cccc(Cl)c2o1 [Example 109, ethyl 2-[2-[2-(8-chloro-4-oxo-chromen-2-yl)-5-methyl-phenoxy]ethylamino]-2-oxo-acetate]",4.11
16,"O=C(O)C(=O)NC1(COc2cc(C(F)(F)F)ccc2-c2cc(=O)c3cccc(Cl)c3o2)CC1 [Example 110, 2-[[1-[[2-(8-chloro-4-oxo-chromen-2-yl)-5-(trifluoromethyl)phenoxy]methyl]cyclopropyl]amino]-2-oxo-acetic acid]",3.76
17,"COc1ccc(-c2cc(=O)c3cccc(Cl)c3o2)c(OCCNC(=O)C(=O)O)c1 [Example 111, 2-[2-[2-(8-chloro-4-oxo-chromen-2-yl)-5-methoxy-phenoxy]ethylamino]-2-oxo-acetic acid]",0.18
18,Cc1cc(F)c(-c2cc(=O)c3cccc(Cl)c3o2)c(OCCNC(=O)C(=O)O)c1 [Example 112],0.49
19,O=C(O)C(=O)NCCOc1cc(Br)ccc1-c1cc(=O)c2cccc(Cl)c2o1 [Example 113],0.49
20,COc1cc(OCCNC(=O)C(=O)O)c(-c2cc(=O)c3cccc(Cl)c3o2)cc1OC [Example 114],0.87
21,CC(C)(COc1cc(C(F)(F)F)ccc1-c1cc(=O)c2cccc(Cl)c2o1)NC(=O)C(=O)O [Example 115],1.04
22,COc1cc(C)cc(OCCNC(=O)C(=O)O)c1-c1cc(=O)c2cccc(Cl)c2o1 [Example 118],1.98
23,Cc1ccc(-c2cc(=O)c3cccc(Cl)c3o2)c(OCCCNC(=O)C(=O)O)c1 [Example 120],2.96
24,Cc1ccc(-c2cc(=O)c3cccc(Cl)c3o2)c(OCCNC(=O)C(=O)O)c1 [Example 121],4.25

# — US20220169639A1 (priority 2018, published 2022)
